The structures appear in SMILES notation. A value given as a limit tells only on which side of the number the result lay.

Common to all, as to type: cell-based
Test [1] deals with IL-6 (THP-1 human monocyte cell line). Nature of the test: IL-6 inhibition in LPS-stimulated THP-1 cells (HTRF). Particulars: LPS 500 ng/mL, 22 hours, IL6 HTRF. The protocol: Human monocyte cell line (THP-1 cells; Catalog # TIB-202, ATCC, Manassas, Va.) were cultured in Roswell Park Memorial Institute (RPMI) 1640 Medium (Catalog #21870-100, Buffalo, N.Y.) with 1% L-glutamine, 1% HEPES, 1% Sodium Pyruvate, 2% Sodium Bicarbonate supplemented with 100 units/mL penicillin, 50 μg/mL streptomycin, 2-mercaptoethanol (0.05 mM) [basal medium] and 10% fetal bovine serum (Catalog #16140089, Life Technologies, Carlsbad, Calif.) at 37° C. and 5% CO2.
THP-1 cells were cultured in basal media with 1% FBS for 24 hours before the start of the assay. Each compound was dissolved in DMSO as a 10 mM stock and used to prepare compound source plates. Serial dilution (1:3, 10-point dose-response curves starting from […]) and compound transfer was performed using the ECHO 550 (Labcyte, Sunnyvale, Calif.) into 384-well white low volume assay plates (Greiner Bio-One) with appropriate DMSO backfill for a final DMSO concentration of 0.1%. THP-1 cells were plated at 5000 cells/well in the 384-well plates and incubated at 37° C. for 2 h. 500 ng/mL of LPS was added after 2 hours and cells were incubated for another 22 hours at 37° C. Plates were spun in a centrifuge for 1 minute at 10,000 rpm and a mixture of anti-IL6 XL665, and anti-IL6 Cryptate diluted in reconstitution buffer (Cisbio Inc.) was added to each well. Following incubation for 3 hrs at room temperature, Homogeneous Time-Resolved Fluorescence (HTRF) was measured using the Envision (Perkin Elmer) at 665 nm and […]. The ratio of fluorescence at 665 nm to 620 nm was used as a readout for IL6 quantification. All samples were processed in duplicate. Readings were normalized to DMSO treated cells and normalized activities were utilized for EC50 calculations using the dose-response log (inhibitor) vs. response—variable slope (four parameters) nonlinear regression feature available in GraphPad Prism 5.0 (or Dotmatics). For EC50 of >10 μM, the percent inhibition at 10 μM is provided.

Test [2] deals with SW480 colon cancer cells. The experiment in a line: Cell viability assay (CellTiter-Blue). The settings on record: Homo sapiens, 96 h, four days; for inhibition at 10 µM: given for EC50 >10 μM, read-out: percent inhibition at 10 μM. The protocol:
Representative compounds were screened using the following assay procedure to assess the effect on cell viability as described below.
Each compound was dissolved in DMSO as a 10 mM stock and used to prepare compound source plates. Serial dilution (1:3, 8-point dose-response curves from 10 μM to 0.0045 μM) and compound transfer was performed using the ECHO 550 (Labcyte, Sunnyvale, Calif.) into 96-well clear bottom, black-walled plates (Corning-Costar).
Approximately 2×10^3 SW480 colon cancer cells were seeded into each well and allowed to incubate in the presence or absence of compound for four days at 37° C./5% CO2. Eight replicates of DMSO-treated cells served as controls and cells treated with compound were performed in duplicate.
After incubation, 20 μL of CellTiter-Blue (Promega) was added to each well allowed to incubate for approximately 3 hours. This reagent was a buffered solution which contains resazurin, metabolically active cells were able to reduce rezarurin (blue) into resorufin (pink) which was highly fluorescent. This measured fluorescence was used as a readout for cell viability.
After incubation, the plates were read at Ex 560 nm Em 590 nm (Cytation 3, BioTek). Dose-response curves were generated and EC50 concentration values were calculated using non-linear regression curve fit in the GraphPad Prism (San Diego, Calif.) or Dotmatics' Studies Software (Bishops Stortford, UK). For EC50 of >10 μM, the percent inhibition at 10 μM is provided.

The subject of test [3] is primary human fibroblasts derived from IPF patients (LL29 cells). The experiment in a line: Inhibition of fibrotic process, αSMA staining in TGF-β1 treated LL29 fibroblasts. The settings on record: Fibroblast, 96 h, TGF-β1 20 ng/mL, 4 days; for EC50: % αSMA positive cells. The text has this:
Representative compounds were screened using primary human fibroblasts (derived from IPF patients) treated with TGF-β1 to determine their ability to inhibit the fibrotic process.
Primary human fibroblasts derived from IPF patients (LL29 cells) [^1Xiaoqiu Liu, et. al., “Fibrotic Lung Fibroblasts Show Blunted Inhibition by cAMP Due to Deficient cAMP Response Element-Binding Protein Phosphorylation”, Journal of Pharmacology and Experimental Therapeutics (2005), 315(2), 678-687; ^2Watts, K. L., et. al., “RhoA signaling modulates cyclin D1 expression in human lung fibroblasts; implications for idiopathic pulmonary fibrosis”, Respiratory Research (2006), 7(1), 88] were obtained from American Type Culture Collection (ATCC) and expanded in F12 medium supplemented with 15% Fetal Bovine Serum and Penicillin/Streptomycin.
Each compound was dissolved in DMSO as a 10 mM stock and used to prepare compound source plates. Serial dilution (1:2, 11-point dose-response curves from […] to […]) and compound transfer was performed using the ECHO 550 (Labcyte, Sunnyvale, Calif.) into 384-well clear bottom assay plates (Greiner Bio-One) with appropriate DMSO backfill for a final DMSO concentration of 0.1%. LL29 cells are plated at 1,500 cells/well in 80 μL/well F12 medium supplemented with 1% Fetal Bovine Serum. One hour after addition of the cells, TGF-β1 (Peprotech; 20 ng/mL) was added to the plates to induce fibrosis (ref. 1 and 2 above). Wells treated with TGF-β1 and containing DMSO were used as controls. Cells were incubated at 37° C. and 5% CO2 for 4 days. Following incubation for 4 days, SYTOX green nucleic acid stain (Life Technologies [Thermo Fisher Scientific]) was added to the wells at a final concentration of 1 μM and incubated at room temperature for 30 min. Cells were then fixed using 4% formaldehyde (Electron Microscopy Sciences), washed 3 times with PBS followed by blocking and permeabilization using 3% Bovine Serum Albumin (BSA; Sigma) and 0.3% Triton X-100 (Sigma) in PBS. Cells were then stained with antibody specific to α-smooth muscle actin (αSMA; Abcam) (ref. 1 and 2 above) in 3% Bovine Serum Albumin (BSA; Sigma) and 0.3% Triton X-100 (Sigma) in PBS, and incubated overnight at 4° C. Cells were then washed 3 times with PBS, followed by incubation with Alexa Flor-647 conjugated secondary antibody (Life Technologies [Thermo Fisher Scientific]) and DAPI at room temperature for 1 hour. Cells were then washed 3 times with PBS and plates were sealed for imaging. αSMA staining was imaged by excitation at 630 nm and emission at 665 nm and quantified using the Compartmental Analysis program on the CellInsight CX5 (Thermo Scientific). Dead or apoptotic cells were excluded from analysis based on positive SYTOX green staining. % of total cells positive for αSMA were counted in each well and normalized to the average of 11 wells treated with TGF-β1 on the same plate using Dotmatics' Studies Software. The normalized averages (fold change over untreated) of 3 replicate wells for each compound concentration were used to create dose-responses curves and EC50 values were calculated using non-linear regression curve fit in the Dotmatics' Studies Software. For EC50 of >10 μM, the percent inhibition at 10 μM is provided.

Test [4] has as its system Wnt activity (Sp5-Luc reporter, SW480 colon carcinoma cells). The experiment in a line: Wnt activity screening assay, Sp5-Luc reporter gene in SW480 cells. Particulars: Homo sapiens; for inhibition at 10 µM: given for EC50 >10 μM, read-out: percent inhibition at 10 μM; for EC50: overnight incubation. From the text: The screening assay for Wnt activity is described as follows. Reporter cell lines can be generated by stably transducing cancer cell lines (e.g., colon cancer) or primary cells (e.g., IEC-6 intestinal cells) with a lentiviral construct that includes a Wnt-responsive promoter driving expression of the firefly luciferase gene.
SW480 colon carcinoma cells were transduced with a lentiviral vector expressing luciferase with a human Sp5 promoter consisting of a sequence of eight TCF/LEF binding sites. SW480 cells stably expressing the Sp5-Luc reporter gene and a hygromycin resistance gene were selected by treatment with 150 μg/mL of hygromycin for 7 days. These stably transduced SW480 cells were expanded in cell culture and used for all further screening activities. Each compound was dissolved in DMSO as a 10 mM stock and used to prepare compound source plates. Serial dilution (1:3, 10-point dose-response curves starting from 10 μM) and compound transfer was performed using the ECHO 550 (Labcyte, Sunnyvale, Calif.) into 384-well white solid bottom assay plates (Greiner Bio-One) with appropriate DMSO backfill for a final DMSO concentration of 0.1%. For Sp5-Luc reporter gene assays, the cells were plated at 4,000 cells/well in 384-well plates with medium containing 1% fetal bovine serum and incubated overnight at 37° C. and 5% CO2. Following incubation, 20 μl of BrightGlo luminescence reagent (Promega) was added to each well of the 384-well assay plates. The plates were placed on an orbital shaker for 2 min and then luminescence was quantified using the Envision (Perkin Elmer) plate reader. Readings were normalized to DMSO only treated cells, and normalized activities were utilized for EC50 calculations using the dose-response log (inhibitor) vs. response—variable slope (four parameters) nonlinear regression feature available in GraphPad Prism 5.0 (or Dotmatics). For EC50 of >10 μM, the percent inhibition at 10 μM is provided.

On to `Fc1cccc(-c2ccnc3[nH]c(-c4n[nH]c5ncc(-c6cncc(CNCc7ccccc7)c6)cc45)cc23)c1` [Compound 24, N-Benzyl-1-(5-(3-(4-(3-fluorophenyl)-1H-pyrrolo[2,3-b]pyridin-2-yl)-1H-pyrazolo[3,4-b]pyridin-5-yl)pyridin-3-yl)methanamine], for which the EC50 in test [1] is 4.16 µM; in test [2] it was 2.45 µM; in test [3] it was 1.05 µM; in test [4] it was above 10 µM. For the same compound, in test [4], the inhibition at 10 µM is 25.8%.

Regarding `CC(C)(C)C(=O)Nc1cncc(-c2cnc3[nH]nc(-c4cc5c(-c6ccc(F)cc6)ccnc5[nH]4)c3c2)c1` [Compound 36, N-(5-(3-(4-(4-Fluorophenyl)-1H-pyrrolo[2,3-b]pyridin-2-yl)-1H-pyrazolo [3,4-b]pyridin-5-yl)pyridin-3-yl)pivalamide], the EC50 in test [2], in test [3] and in test [4] was above 10 µM each time. For the same compound, the inhibition at 10 µM in test [2] came to 11.9%; in test [3] (given for EC50 >10 μM, read-out: percent inhibition at 10 μM) it was 33.9%; in test [4], 12.7%.

In the case of `O=C(Nc1cncc(-c2cnc3[nH]nc(-c4cc5c(N6CCCCC6)ccnc5[nH]4)c3c2)c1)C1CC1` [Compound 188, N-(5-(3-(4-(Piperidin-1-yl)-1H-pyrrolo[2,3-b]pyridin-2-yl)-1H-pyrazolo[3,4-b]pyridin-5-yl)pyridin-3-yl)cyclopropanecarboxamide], the EC50 in test [1] is 0.348 µM; in test [2], above 10 µM; in test [3], 1.79 µM; in test [4], 3.31 µM. The inhibition at 10 µM in test [2] was determined as 40.8%.

Turning to `c1cc(N2CCCCC2)c2cc(-c3n[nH]c4ncc(C5CCNCC5)cc34)[nH]c2n1` [Compound 601, 3-(4-(Piperidin-1-yl)-1H-pyrrolo[2,3-b]pyridin-2-yl)-5-(piperidin-4-yl)-1H-pyrazolo[3,4-b]pyridine], the EC50 in test [1] was 3.89 µM; in test [2], 5.38 µM; in test [3], 9.66 µM; in test [4], above 10 µM. The inhibition at 10 µM in test [4] was found to be 36.6%.
